# Results from a melting point compilation (Tetko et al.; mined from patent text by program, amines drawn as free bases though some values may be those of a salt).
row,Structure (SMILES),melting point [°C]
1,N#Cc1cnc(N)cc1N,197 to 198
2,C=C(C)[C@H](C(=O)OC(c1ccccc1)c1ccccc1)N1C(=O)[C@@H]2N=C(c3ccccc3)O[C@@H]21,116 to 118
3,C=CCSC1=C(O)CC(C)(C)CC1=O,67.5 to 69.5
4,CCOC(=O)Cc1c(C(=O)OCC)c(O)c(C(=O)c2ccc(Cl)cc2)n1C,145 to 147
5,[N-]=[N+]=Nc1c([N+](=O)[O-])cnn1-c1c(Cl)cc(C(F)(F)F)c(Cl)c1Cl,84 to 88
6,Cc1c(Cc2ccc(Cl)cc2)sc2nc(N)[nH]c(=O)c12,300 to 320
7,CC(NC(Nc1cc(Cl)cc(Cl)c1)=C(C#N)S(=O)(=O)c1ccc(Cl)cc1)C(C)(C)C (centres undefined),163 to 169
8,CCOC(=O)c1csnc1-c1ccc(OC)c(OC)c1,74 to 75.5
9,COCCN1C(=O)C(C)(C)C(=O)Nc2cc(C#N)ccc21,184 to 185
10,CON=C(c1ccccc1COc1ccc(Cl)cc1)c1ncnn1C,113 to 114
11,CN(C)c1snc2c1c(N)nc(=O)n2Cc1ccccc1,190 to 195
12,COc1ccc(-c2nc(Sc3ccccc3)[nH]c2-c2ccc(OC)cc2)cc1,177 to 179
13,COc1cn(-c2ccc(N3CCC3=O)cc2F)nc(-c2ccnn2-c2ccccc2)c1=O,189 to 194
14,N#Cc1c(NC(=O)c2ccccc2)ccc2ccccc12,205
15,CCc1cnc(C2=NC(C)(C(C)C)C(=O)N2)c(C(=O)NCCCC(=O)O)c1 (centres undefined),165 to 167
16,CC(C)(C)c1cc(NC(=O)Nc2ccc(Oc3ccccc3)cc2)on1,182 to 184
17,COc1ccc(C=Cc2nnc(CCl)o2)cc1,139 to 141
18,C=CCc1c(O)c(Cl)cc(F)c1N1C(=O)c2ccccc2C1=O,134 to 136
19,Cc1nsc(N(C)C(=O)C2CCCCC2)n1,96
20,O=C(Nc1ccc(N2C[C@@H]3C[C@H]2CO3)c(F)c1)OCc1ccccc1,120 to 121
21,CC(C)c1nccc2c(CNC(=O)C(Cl)Cl)cccc12,151
22,Oc1ccc(C2(O)CCC3CN(Cc4ccccc4)CCC3C2)cc1 (centres undefined),108 to 109
23,O=[N+]([O-])c1cc([N+](=O)[O-])c(Nc2cccc3c2OC(F)(F)O3)c(C(F)(F)F)c1,144 to 146
24,COc1cccc2c(=O)c3c(O)cc(OCC4CS4)cc3oc12 (centres undefined),187
25,Cc1cnc2c(c1)n(C(C)C)c(=O)n2-c1ccc(Oc2nc3cccnc3n2C)cc1,252

row,Structure (SMILES),melting point [°C]
1,O=C1CC(c2cccc(-n3ccnc3)c2)=Nc2cc(OCCO)c(-c3ccc(F)cc3)cc2N1,225
2,CCc1ccc(S(=O)(=O)Nc2ccc(Cl)cc2[N+](=O)[O-])cc1,104 to 106
3,CN1CCN(CCc2ccc(Nc3ncc4c(n3)-c3ccccc3C(c3ccccc3C(F)(F)F)C4)cc2)CC1 (centres undefined),157 to 158
4,CS(=O)(=O)c1ccc(-c2c(-c3ccccc3F)[nH]c3ccc(Cl)cc23)cc1,246 to 248
5,CN1CCN(Cc2ccc(Nc3ccnc4cc(C(F)(F)F)ccc34)cc2)CC1,218 to 220
6,Cc1cc(C(=O)OC(CC(C)C)C(=O)O)cc(C)n1 (racemic),95 to 96
7,O=C(NCCO)c1cc2c(Oc3ccc(Cl)cc3)cnc(Cl)c2s1,129 to 132
8,CC(C)(C)OC(=O)NCCCn1c(-c2ccc([N+](=O)[O-])cc2)csc1=Nc1ccccc1,254 to 257
9,COC(=O)N(C)C1CN(C(=O)Nc2ccc(OC(F)(F)F)cc2)N=C1c1ccc(OC(F)F)cc1 (centres undefined),125 to 126
10,O=C(O)c1cn(Cc2ccc(OCc3csc(-c4ccccc4)n3)cc2)nc1-c1cccs1,187 to 188
11,O=[N+]([O-])c1cc2c(Cl)ncnc2cc1F,116 to 118
12,Nc1cnc(NCC2CCCCC2)nc1O,180
13,Cc1cccc(N2CCCC2=O)c1CNc1cccn2c(C)c(C)nc12,138 to 141
14,O=C(CCN1CCN(c2cccc(C(F)(F)F)c2)CC1)Nc1ccccc1[N+](=O)[O-],185 to 188
15,O=C(Nc1nccs1)c1cn(-c2ccccc2)c2ccccc2c1=O,290
16,Cn1nnnc1-c1cnc2cc(Cl)c(F)cc2c1O,326 to 330
17,CCCCOC(=O)C(C)Oc1ccc(COc2ccc(Cl)cc2)cc1 (centres undefined),66
18,CC1(COc2ccc(Cc3nnn[nH]3)cc2)CCCCC1=NO (centres undefined),153 to 156
19,CS(=O)(=O)c1ccc(C(CC2CCOCC2)c2cnc(-c3ccccn3)[nH]2)cc1Cl (centres undefined),106 to 109
20,CON=C(C[N+](=O)[O-])NCc1cccnc1,77 to 78
21,Cc1cc(O)c(C)c2c1C(C)CC(C)(C)O2 (centres undefined),88 to 89
22,CC(C)c1cccc(C(C)C)c1NC(=O)CNC(C)c1ccccn1 (centres undefined),99 to 101
23,Cc1nc(C(=O)NS(=O)(=O)c2c(C)csc2C(=O)OC(C)C)no1,142
24,COCC1OC(n2cnc3c(Cl)nc(Cl)nc32)C(OC(C)=O)C1OC(C)=O (centres undefined),59 to 61
